Our source for the IC50 values is patent US9073895B2 (Boehringer Ingelheim International GmbH, priority 2010, dated 2015).

Structures are written as SMILES.

This assay addresses T1, recombinant human FLAP protein (Homo sapiens, UniProt P20292).
T1 construct: made in house; host or cells: Sf9 insect cells (membrane fraction, 100,000 x g pellet)
T1 sequence (P20292 1-161): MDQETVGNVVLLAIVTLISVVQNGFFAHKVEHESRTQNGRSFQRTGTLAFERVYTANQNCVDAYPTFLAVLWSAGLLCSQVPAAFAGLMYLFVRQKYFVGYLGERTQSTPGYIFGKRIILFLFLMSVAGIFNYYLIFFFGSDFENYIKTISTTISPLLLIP
The experiment in a line: FLAP binding assay (SPA, displacement of [125I]L-691,831). The note with it: membranes of sf9 cells expressing human FLAP, [125I]L-691,831 probe; read-out: hFLAP binding IC50. The protocol:
Compounds are assessed for the ability to bind to FLAP in a binding assay that measures compound-specific displacement of an iodinated (^125I) FLAP inhibitor via a Scintillation Proximity Assay format (adapted from S. Charleson et al., Mol. Pharmacol., 1992, 41, 873-879).
Cell pellets produced from sf9 insect cells expressing recombinant human FLAP protein are resuspended in buffer A [15 mM Tris-HCl (pH 7.5), 2 mM MgCl2, 0.3 mM EDTA, 1 mM PMSF]. The cells are lysed with a Dounce homogenizer and the material is centrifuged at 10,000×g for 10 minutes. The supernatant is then collected and centrifuged at 100,000×g for 60 minutes. To prepare membrane protein for an assay, an aliquot of the 100,000×g pellet is resuspended in 1 ml of buffer A, Dounce homogenized, and finally subjected to polytron mixing (30 seconds). Membrane protein (25 μl, 5 μg) is mixed with WGA SPA beads (Amersham) and stirred for 1 h. To an assay plate (Perkin Elmer FlexiPlate) is added 25 μl of test compound prepared in Binding buffer [100 mM Tris (pH 7.5), 140 mM NaCl, 5% glycerol, 2 mM EDTA, 0.5 mM TCEP, 0.05% Tween 20], 25 μl of [^125I]L-691,831 (an iodinated analog of MK-591, Charleson et al. Mol. Pharmacol., 41, 873-879, 1992) and finally 50 μl of the bead/protein mixture. (final concentrations: beads, 200 μg/well; protein, 5μg/well; [^125I] probe, 0 08 nM/well(17 nCi/well). The plates are shaken for 2 h before reading on a Microbeta plate reader. Non-specific binding is determined by the addition of 10 μM cold L-691,831 compound.
In general terms: Displacement assays read how much labelled ligand stays bound in the presence of the test substance.
As usually defined, the IC50 is the concentration needed to halve the response being measured. For the molecule `Nc1ncc(-c2ccc(C3(C(=O)Nc4cc(-c5ccccn5)no4)CCOCC3)cc2)cn1` [Example 56, 4-[4-(2-aminopyrimidin-5-yl)phenyl]-N-[3-(pyridin-2-yl)-1,2-oxazol-5-yl]tetrahydro-2H-pyran-4-carboxamide], the IC50 was determined as 380 nM.
Next, `Nc1ncc(-c2ccc(C3(C(=O)Nc4cc(-c5cccnc5)no4)CCOCC3)cc2)cn1` [Example 57, 4-[4-(2-aminopyrimidin-5-yl)phenyl]-N-[3-(pyridin-3-yl)-1,2-oxazol-5-yl]tetrahydro-2H-pyran-4-carboxamide]: 260 nM; `Cn1c(=O)c2cc(NC(=O)C3(c4ccc(-c5cnc(N)nc5)cc4)CCOCC3)cnc2n(C)c1=O` [Example 69, 4-[4-(2-aminopyrimidin-5-yl)phenyl]-N-(1,3-dimethyl-2,4-dioxo-1,2,3,4-tetrahydropyrido[2,3-d]pyrimidin-6-yl)tetrahydro-2H-pyran-4-carboxamide]: 260 nM; `CN(C)S(=O)(=O)c1cccc(NC(=O)C2(c3ccc(-c4cnc(N)nc4)cc3)CCOCC2)c1` [Example 77, 4-[4-(2-aminopyrimidin-5-yl)phenyl]-N-[3-(dimethylsulfamoyl)phenyl] tetrahydro-2H-pyran-4-carboxamide]: 110 nM.
Next, `CCOC(=O)c1ccnc(NC(=O)C2(c3ccc(-c4cnc(N)nc4)cc3)CCOCC2)c1` [Example 84, ethyl 2-[({4-[4-(2-aminopyrimidin-5-yl)phenyl]tetrahydro-2H-pyran-4-yl}carbonyl)amino]pyridine-4-carboxylate]: 180 nM.
Next, `Nc1ncc(-c2ccc(C3(C(=O)Nc4ccc(C(=O)O)cn4)CCC3)cc2)cn1` [Example 96, 6-[({1-[4-(2-aminopyrimidin-5-yl)phenyl]cyclobutyl}carbonyl)amino]pyridine-3-carboxylic acid]: 26 nM; `Nc1ncc(-c2ccc(C3(C(=O)Nc4ccc(O)c(C(=O)O)c4)CCC3)cc2)cn1` [Example 101, 5-[({1-[4-(2-aminopyrimidin-5-yl)phenyl]cyclobutyl}carbonyl)amino]-2-hydroxybenzoic acid]: 47 nM.
For the molecule `CS(=O)(=O)NC(=O)c1ccc(NC(=O)C2(c3ccc(-c4cnc(N)nc4)cc3)CCC2)nc1` [Example 105, 6-[({1-[4-(2-aminopyrimidin-5-yl)phenyl]cyclobutyl}carbonyl)amino]-N-(methylsulfonyl)pyridine-3-carboxamide], the IC50 came to 17.5 nM.
Regarding `Cc1ccc(NC(=O)C2(c3ccc(-c4cnc(N)nc4)cc3)CCOCC2)nc1` [Example 139, 4-[4-(2-aminopyrimidin-5-yl)phenyl]-N-(5-methylpyridin-2-yl)tetrahydro-2H-pyran-4-carboxamide], the IC50 amounted to 110 nM.
Next, `Cc1ccnc(NC(=O)C2(c3ccc(-c4cnc(N)nc4)cc3)CCOCC2)c1` [Example 140, 4-[4-(2-aminopyrimidin-5-yl)phenyl]-N-(4-methylpyridin-2-yl)tetrahydro-2H-pyran-4-carboxamide]: 230 nM; `Cc1cccc(NC(=O)C2(c3ccc(-c4cnc(N)nc4)cc3)CCOCC2)n1` [Example 141, 4-[4-(2-aminopyrimidin-5-yl)phenyl]-N-(6-methylpyridin-2-yl)tetrahydro-2H-pyran-4-carboxamide]: 190 nM; `Cc1cccc(-c2cnc(NC(=O)C3(c4ccc(-c5cnc(N)nc5)cc4)CCOCC3)nc2)c1` [Example 156, 4-[4-(2-aminopyrimidin-5-yl)phenyl]-N-[5-(3-methylphenyl)pyrimidin-2-yl]tetrahydro-2H-pyran-4-carboxamide]: 490 nM.
The same measure for `Nc1ncc(-c2ccc(C3(C(=O)Nc4ccc(C(=O)O)cn4)CCOCC3)cc2)cn1` [Example 157, 6-[({4-[4-(2-aminopyrimidin-5-yl)phenyl]tetrahydro-2H-pyran-4-yl}carbonyl)amino]pyridine-3-carboxylic acid]: 410 nM; for `CC(C)(O)c1ccc(NC(=O)C2(c3ccc(-c4cnc(N)nc4)cc3)CCOCC2)nc1` [Example 159, 4-[4-(2-aminopyrimidin-5-yl)phenyl]-N-[5-(2-hydroxypropan-2-yl)pyridin-2-yl]tetrahydro-2H-pyran-4-carboxamide]: 420 nM.
Next, `Nc1ncc(-c2ccc(C3(C(=O)Nc4ccccn4)CCCCC3)cc2)cn1` [Example 160, 1-[4-(2-aminopyrimidin-5-yl)phenyl]-N-(pyridin-2-yl)cyclohexanecarboxamide]: 13 nM; `CCCCCc1ccnc(NC(=O)C2(c3ccc(-c4cnc(N)nc4)cc3)CCOCC2)c1` [Example 161, 4-[4-(2-aminopyrimidin-5-yl)phenyl]-N-(4-pentylpyridin-2-yl)tetrahydro-2H-pyran-4-carboxamide]: 31 nM.
As for `COc1nc(-c2ccc(C3(C(=O)Nc4ccc(-c5csc(C)n5)cn4)CCOCC3)cc2)cnc1N` [Example 181, 4-[4-(5-amino-6-methoypyrazin-2-yl)phenyl]-N-[5-(2-methyl-1,3-thiazol-4-yl)pyridin-2-yl]tetrahydro-2H-pyran-4-carboxamide], the IC50 was determined as 110 nM.
Next, `Nc1ncc(-c2ccc(C3(C(=O)Nc4ccccc4-c4ccccc4)CCC3)cc2)cn1` [Example 202, 1-[4-(2-aminopyrimidin-5-yl)phenyl]-N-(biphenyl-2-yl)cyclobutanecarboxamide]: 56.5 nM; `CC(=O)Nc1ccc(-c2ccc(C3(C(=O)Nc4ccc(-c5csc(C)n5)cn4)CCOCC3)cc2)cn1` [Example 206, 4-{4-[6-(acetylamino)pyridin-3-yl]phenyl}-N-[5-(2-methyl-1,3-thiazol-4-yl)pyridin-2-yl]tetrahydro-2H-pyran-4-carboxamide]: 270 nM.
Next, `COCCNc1ncc(-c2ccc(C3(C(=O)Nc4ccc(-c5csc(C)n5)cn4)CCOCC3)cc2)cn1` [Example 207, 4-(4-{2-[(2-methoxyethyl)amino]pyrimidin-5-yl}phenyl)-N-[5-(2-methyl-1,3-thiazol-4-yl)pyridin-2-yl]tetrahydro-2H-pyran-4-carboxamide]: 230 nM.
The same measure for `Cc1nc(NC(=O)C2(c3ccc(-c4cnc(N)nc4)cc3)CCC2)sc1C` [Example 209, 1-[4-(2-aminopyrimidin-5-yl)phenyl]-N-(4,5-dimethyl-1,3-thiazol-2-yl)cyclobutanecarboxamide]: 13 nM; for `Cc1cnc(NC(=O)C2(c3ccc(-c4cnc(N)nc4)cc3)CCC2)s1` [Example 211, 1-[4-(2-aminopyrimidin-5-yl)phenyl]-N-(5-methyl-1,3-thiazol-2-yl)cyclobutanecarboxamide]: 23.5 nM; for `Cc1cc(NC(=O)C2(c3ccc(-c4cnc(N)nc4)cc3)CCC2)nc(C)n1` [Example 212, 1-[4-(2-aminopyrimidin-5-yl)phenyl]-N-(2,6-dimethylpyrimidin-4-yl)cyclobutanecarboxamide]: 15 nM.
Take `Nc1ncc(-c2ccc(C3(C(=O)Nc4ccnc(O)c4)CCC3)cc2)cn1` [Example 220, 1-[4-(2-aminopyrimidin-5-yl)phenyl]-N-(2-hydroxypyridin-4-yl)cyclobutanecarboxamide]: the IC50 worked out at 470 nM.
Next, `CC(C)C(C)(C(=O)Nc1ccncc1)c1ccc(-c2ccc(NCCO)nc2)cc1` (centres unmarked) [Example 226, 2-(4-{6-[(2-hydroxyethyl)amino]pyridin-3-yl}phenyl)-2,3-dimethyl-N-(pyridin-4-yl)butanamide]: 250 nM.
Next, `NC(=O)c1ccc(NC(=O)C2(c3ccc(-c4cnc(N)nc4)cc3)CCC2)cn1` [Example 240, 5-[({1-[4-(2-aminopyrimidin-5-yl)phenyl]cyclobutyl}carbonyl)amino]pyridine-2-carboxamide]: 4.4 nM; `Nc1ncc(-c2ccc(C3(C(=O)Nc4nc(-c5ccccc5)ns4)CCC3)cc2)cn1` [Example 242, 1-[4-(2-aminopyrimidin-5-yl)phenyl]-N-(3-phenyl-1,2,4-thiadiazol-5-yl)cyclobutanecarboxamide]: 3.95 nM.
The same measure for `Nc1ncc(-c2ccc(C3(C(=O)Nc4n[nH]c(-c5ccccc5)n4)CCC3)cc2)cn1` [Example 243, 1-[4-(2-aminopyrimidin-5-yl)phenyl]-N-(5-phenyl-1H-1,2,4-triazol-3-yl)cyclobutanecarboxamide]: 22 nM; for `COc1ccc(-c2nc(NC(=O)C3(c4ccc(-c5cnc(N)nc5)cc4)CCC3)n[nH]2)cc1` [Example 244, 1-[4-(2-aminopyrimidin-5-yl)phenyl]-N-[5-(4-methoxyphenyl)-1H-1,2,4-triazol-3-yl]cyclobutanecarboxamide]: 10.8 nM.
